Test results from patent US20110294741A1, “USE OF COMPOUNDS IN THE TREATMENT OF TAU-INDUCED CYTOTOXICITIES” (Bioalvo-Servicos, Investigacao e Desenvolvimento em …, priority 2008, published 2011).

What was measured:
[1] = Acrylamide quenching to determine aggregation in aqueous medium; format: physicochemical; conditions: acrylamide quenching of tyrosine fluorescence, Stern-Volmer plot
Experimental: The aggregation of molecules in aqueous medium, as a result of poor solubility, for example, is a critical parameter in pharmacology. […] For this purpose, acrylamide quenching studies were performed (Lakowicz J. R 1999. Principles of Fluorescence spectroscopy, Second Edition ed., Kluwer Academic/Plenum Publishers, New York; Coutinho A and Prieto M. 1993. Ribonuclease T1 and alcohol dehydrogenase fluorescence quenching by acrylamide: A laboratory experiment for undergraduate students J. Chem. Education, 70: 425-428).
Acrylamide is an aqueous quencher of the tyrosine fluorescence. When fluorescent peptides aggregate, the phenolic groups tend to cluster and remain inaccessible to hydrophilic molecules. Conversely, when no aggregation occurs, all tyrosine residues are exposed to the solvent and, therefore, accessible to the contact and quenching by acrilamide.
The fluorescence spectra were not concentration-dependent (not shown) and there was a linear dependence of fluorescence intensity on concentration (not shown).

[2] = test system: […] I cells, tunicamycin-induced ER stress; test: Yeast platform DISAGGREGATOR I, ER stress GFP reporter (chemically induced with tunicamycin); format: cell-based; conditions: 1 μg/ml tunicamycin
Experimental: Cells were grown as described for FIG. 7;
The yeast platform DISAGGREGATOR I comprises an ER stress element operably linked to a GFP reporter element and is used to determine the level of ER stress in cells during growth or triggered by specific ER stress inducers, e.g. tunicamycin. Tunicamycin is known to inhibit the glycosylation of nascent polypeptides, resulting in misfolded proteins, that are retained in the endoplasmic reticulum and therefore triggering ER stress.
Using these two platforms in parallel, it is possible to identify compounds that reduce specifically the stress induced by the TAU P301L protein, and other compounds that are simply general ER stress reducers.
DISAGGREGATOR I P301L cells were grown in 200 μl medium containing the KTP-NH2 at a concentration of 10 μM and 100 μM. DISAGGREGATOR I cells were grown in the same condition but subjected to an addition of 1 μg/mL of tunicamycin in order to induce ER stress chemically.

rats (Wister, male) = test: In vivo toxicology: antioxidant capacity in blood samples; design: species or system rat; conditions: i.p. once a day 3.23 mg-100 g body mass, seven days
Experimental: The toxicological studies were carried out with rats (Wister, male) injected i.p. once a day with 3.23 mg-100 g body mass during seven days.
Metabolization of KTP-NH2 in the organism might lead to an increase in its metabolite products and to the subsequent production of reactive oxygen species (ROS). As increased ROS levels are potentially harmful.
KTP-NH2 potential to induce changes in antioxidant capacities in the plasma of animals was explored. Total antioxidant capacity of lipid-soluble (ACL) and water-soluble (ACW) constituents were determined.

Structure (SMILES): N=C(N)NCCCC(NC(=O)C(N)Cc1ccc(O)cc1)C(N)=O [KTP-NH2, L-Tyr-L-Arg-NH2]
- aggregation in aqueous medium [1]: No evidence was found for aggregation
- action on ER stress chemically induced with tunicamycin ([2]; 10 and 100 μM, first assay (FIG. 10)): almost no action
- decrease of stress chemically induced with tunicamycin ([2]; second assay (FIG. 12)): did not significantly decrease
- residual ER stress signal, of the maximum level without compound ([2]; 100 μM, average of two experiments (FIG. 13)): 80%
- basal antioxidant capacity in plasma (water-soluble ACW and lipid-soluble ACL constituents) (rats (Wister, male)): does not induce significant modifications
